From patent publication US5521173A, “Tricyclic benzazepine vasopressin antagonists” (American Home Products Corporation, priority 1995, dated 1996) come the findings set out here.

The term inhibition denotes the share of the control response that was lost under treatment. Low readings indicate a response near the control, high ones a response far below the control. As usually defined, the IC50 is the midpoint of a concentration-inhibition curve. Read a low IC50 as greater potency in that assay.

One assay deals with T1, oxytocin receptors (Rattus norvegicus, UniProt P70536).
T1 construct: The uteri are dissected out, cleaned of fat and connective tissues; from tissue; host or cells: uteri of DES-treated female Sprague-Dawley rats
T1 sequence (P70536 1-388): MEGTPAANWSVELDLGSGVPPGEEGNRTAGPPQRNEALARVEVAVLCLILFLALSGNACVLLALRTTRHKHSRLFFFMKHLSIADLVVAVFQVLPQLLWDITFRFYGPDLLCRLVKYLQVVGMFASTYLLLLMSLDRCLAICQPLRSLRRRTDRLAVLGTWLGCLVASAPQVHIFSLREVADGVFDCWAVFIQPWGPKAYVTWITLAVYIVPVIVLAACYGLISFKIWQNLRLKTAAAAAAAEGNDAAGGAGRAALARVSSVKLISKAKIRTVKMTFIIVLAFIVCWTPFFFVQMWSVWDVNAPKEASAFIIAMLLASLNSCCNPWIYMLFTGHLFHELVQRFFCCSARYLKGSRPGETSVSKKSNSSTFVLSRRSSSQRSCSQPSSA
Nature of the assay: Oxytocin Receptor Binding. Further details: species or system rat (female Sprague-Dawley). The following applies: for IC50: 1.0 nM [3H]OT. As to the method:
Oxytocin Receptor Binding
Female Sprague-Dawley rats weighing approximately 200-250 g are injected intramuscularly (i.m.) with 0.3 mg/kg of body weight of diethylstilbestrol (DES). The rats are sacrificed 18 hours later under pentobarbital anesthesia. The uteri are dissected out, cleaned of fat and connective tissues and rinsed in 50 ml of normal saline. The tissue pooled from six rats is homogenized in 50 ml of […] Tris.HCl, containing 0.5 mM dithiothreitol and 1.0 mM EDTA, adjusted to pH 7.4, using a polytron at setting 6 with three passes of 10 sec each. The homogenate is passed through two (2) layers of cheesecloth and the filtrate centrifuged at 1000× g for 10 min. The clear supernatant is removed and recentrifuged at 165,000× g for 30 min. The resulting pellet containing the oxytocin receptors is resuspended in 50.0 mM Tris.HCl containing 5.0 mM MgCl2 at pH 7.4, to give a protein concentration of 2.5 mg/ml of tissue suspension. This preparation is used in subsequent binding assays with [^3 H]Oxytocin.
Binding of 3,5-[^3 H]Oxytocin ([^3 H]OT) to its receptors is done in microtiter plates using [^3 H]OT, at various concentrations, in an assay buffer of 50.0 mM Tris.HCl, pH 7.4 and containing 5.0 mM MgCl2, and a mixture of protease inhibitors: BSA, 0.1 mg; aprotinin, 1.0 mg; 1,10-phenanthroline, 2.0 mg; […], 10.0 mg; and PMSF, 0.3 mg per 100 ml of buffer solution. Non-specific binding is determined in the presence of 1.0 uM unlabeled OT. The binding reaction is terminated after 60 min., at 22° C., by rapid filtration through glass fiber filters using a Brandel, cell harvester (Biomedical Research and Development Laboratories,Inc., Gaithersburg, Md.). Competition experiments are conducted at equilibrium using 1.0 nM [^3 H]OT and varying the concentration of the displacing agents. The concentrations of agent displacing 50% of [^3 H]OT at its sites (IC50) are calculated by a computer assisted LUNDON-2 program (LUNDON SOFTWARE INC., Ohio, USA).

Assay [1] addresses T2, Rat Kidney Medullary V2 Receptors (Rattus norvegicus, UniProt Q00788).
T2 construct: Medullary tissues from rat kidneys are dissected out; from tissue; host or cells: rat kidney medulla membranes
The assay can be described thus: Binding Assay to Rat Kidney Medullary V2 Receptors. The following applies: rat kidney medullary V2 (no asterisk). As to the method:
Binding Assay to Rat Kidney Medullary V2 Receptors
Medullary tissues from rat kidneys are dissected out, cut into small pieces and soaked in a […] sodium chloride solution containing 1.0 mM EDTA with many changes of the liquid phase, until the solution is clear of blood. The tissue is homogenized in a 0.25M sucrose solution containing 1.0 mM EDTA and 0.1 mM PMSF using a Potter-Elvehjem homogenizer with a teflon pestle. The homogenate is filtered through several layers (4 layers) of cheese cloth. The filtrate is rehomogenized using a dounce homogenizer, with a tight fitting pestle. The final homogenate is centrifuged at 1500× g for 15 min. […] The protein content is determined by the Lowry's method (Lowry et al., J. Biol. Chem., 1953). […]
For binding experiments, the following is added in μl volume to wells of a 96 well format of a microtiter plate: 100.0 μl of 100.0 mM Tris.HCl buffer containing 0.2% heat inactivated BSA, 10.0 mM MgCl2 and a mixture of protease inhibitors: leupeptin, 1.0 mg %; aprotinin, 1.0 mg %; 1,10-phenanthroline, 2.0 mg %; trypsin inhibitor, 10.0 mg % and 0.1 mM PMSF, 20.0 μl of [^3 H] […] Non-specific binding is assessed in the presence of 1.0 μM of unlabeled ligand, added in 20 μl volume. […] The data are analyzed for IC50 values by the LUNDON-2 program for competition (LUNDON SOFTWARE, Ohio).

T2 sequence (Q00788 whole entry): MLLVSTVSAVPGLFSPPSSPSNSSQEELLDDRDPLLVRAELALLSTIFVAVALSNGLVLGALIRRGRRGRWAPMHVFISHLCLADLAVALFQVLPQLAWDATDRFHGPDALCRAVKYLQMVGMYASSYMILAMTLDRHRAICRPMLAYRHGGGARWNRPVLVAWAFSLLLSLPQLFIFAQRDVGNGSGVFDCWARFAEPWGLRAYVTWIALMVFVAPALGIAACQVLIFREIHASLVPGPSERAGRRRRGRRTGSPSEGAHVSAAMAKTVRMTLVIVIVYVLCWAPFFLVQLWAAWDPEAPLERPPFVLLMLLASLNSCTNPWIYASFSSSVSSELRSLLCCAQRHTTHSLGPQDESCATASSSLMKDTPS

Turning to `O=C(c1ccc(-c2ccccc2)cc1)N1Cc2ccnn2Cc2ccccc21` [Example 7, 5-([1,1'-Biphenyl]-4-ylcarbonyl)-5,10-dihydro-4H-pyrazolo[5,1-c][1,4]benzodiazepine], at oxytocin receptors, testing at 10 µM gave an inhibition of 100% and the IC50 is 0.23 µM.

On oxytocin receptors, `O=C(c1ccc(-c2ccccc2)cc1)N1Cc2cccn2Cc2ccccc21` [Example 19, 10-([1,1'-Biphenyl]-4-ylcarbonyl)-10,11-dihydro-5H-pyrrolo[2,1-c][1,4]benzodiazepine] showed an inhibition at 10 µM of 81% and a 50% inhibitory concentration (IC50) of 0.043 µM.

On to `O=C(c1ccc(-c2cc(F)cc(F)c2)cc1)N1Cc2cccn2Cc2ccccc21` [Example 3, 10,11-Dihydro-10-[4-(3,5-difluorophenyl)benzoyl]-5H-pyrrolo[2,1-c][1,4]benzodiazepine], for which, on oxytocin receptors, the inhibition at 10 µM worked out at 89% and the IC50 came out at 2.6 µM.

Molecule `O=C(c1ccc(-c2ccccn2)cc1)N1Cc2cccn2Cc2ccccc21` [Example 9, 10,11-Dihydro-10-[4-(2-pyridinyl)benzoyl]-5H-pyrrolo[2,1-c][1,4]benzodiazepine] displayed an IC50 in assay [1] of 1.2 µM. On oxytocin receptors, this molecule registered an inhibition at 10 µM of 100% and a 50% inhibitory concentration (IC50) of 0.13 µM.

As for `O=C(c1ccc(-c2ccccc2C(F)(F)F)cc1)N1Cc2cccn2Cc2ccccc21` [Example 8], in assay [1], the half-inhibitory concentration (IC50) was 3.3 µM. At oxytocin receptors, this molecule yielded an inhibition at 10 µM of 95% and an IC50 of 1.27 µM.
